Measurements as given in ChEMBL document CHEMBL4002577, “Phenylthiazole antibiotics: A metabolism-guided approach to overcome short duration of action” (Eur J Med Chem, 2017).
Converted amounts (≈) assume the structure as drawn. The source made the active and inactive calls. The calls are words filed in the database; no cut-off is given here.

Key:
Staphylococcus aureus [1] = experiment: Bactericidal activity against methicillin-resistant Staphylococcus aureus USA400 NRS123 clinical isolate after 24 hrs; assay type: functional; conditions: for MBC: USA400 NRS123, 24 h
Staphylococcus aureus [2] = experiment: Antibacterial activity against vancomycin-resistant Staphylococcus aureus VRSA10 clinical isolate after 18 to 20 hrs by broth microdilution method; assay type: functional
Staphylococcus aureus [3] = experiment: Antibacterial activity against methicillin/ciprofloxacin/gentamicin/clindamycin-resistant Staphylococcus aureus USA200 NRS383 clinical isolate after 18 to 20 hrs by broth microdilution method; assay type: functional
Staphylococcus aureus [4] = experiment: Antibacterial activity against methicillin/erythromycin/tetracycline-resistant Staphylococcus aureus USA300 NRS384 clinical isolate after 18 to 20 hrs by broth microdilution method; assay type: functional
Staphylococcus aureus [5] = experiment: Antibacterial activity against mupirocin/rifampicin-resistant Staphylococcus aureus RN4220 NRS107 clinical isolate after 18 to 20 hrs by broth microdilution method; assay type: functional
Staphylococcus aureus [6] = experiment: Bactericidal activity against methicillin-resistant Staphylococcus aureus USA400 NRS123 clinical isolate assessed as time required to reduce 4 log10CFU of bacterial load at 4 times MIC by time kill assay; assay type: functional
Staphylococcus aureus [7] = experiment: Bactericidal activity against methicillin-resistant Staphylococcus aureus USA400 NRS123 clinical isolate assessed as reduction of bacterial load at 4 times MIC after 48 hrs by time kill assay; assay type: functional
Staphylococcus aureus [8] = experiment: Bactericidal activity against methicillin/erythromycin/tetracycline-resistant Staphylococcus aureus USA300 NRS384 clinical isolate after 24 hrs; assay type: functional; conditions: for MBC: USA300 NRS384, 24 h
HaCaT [9] = experiment: Cytotoxicity against human HaCaT cells assessed as decrease in cell viability up to 16 ug/ml after 2 hrs by MTS assay; assay type: cell-based
Staphylococcus aureus [10] = experiment: Bactericidal activity against vancomycin-resistant Staphylococcus aureus VRSA4 clinical isolate after 24 hrs; assay type: functional; conditions: VRSA4, 24 h
Staphylococcus aureus [11] = experiment: Bactericidal activity against methicillin/ciprofloxacin/clindamycin-resistant Staphylococcus aureus USA100 NRS382 clinical isolate after 24 hrs; assay type: functional; conditions: for MBC: USA100 NRS382, 24 h
Staphylococcus aureus [12] = experiment: Bactericidal activity against mupirocin/rifampicin-resistant Staphylococcus aureus RN4220 NRS107 clinical isolate after 24 hrs; assay type: functional; conditions: RN4220 NRS107, 24 h
Staphylococcus aureus [13] = experiment: Antibacterial activity against methicillin/ciprofloxacin/clindamycin-resistant Staphylococcus aureus USA100 NRS382 clinical isolate after 18 to 20 hrs by broth microdilution method; assay type: functional
Staphylococcus aureus [14] = experiment: Bactericidal activity against vancomycin-resistant Staphylococcus aureus VRSA10 clinical isolate after 24 hrs; assay type: functional; conditions: VRSA10, 24 h
Staphylococcus aureus [15] = experiment: Antibacterial activity against methicillin-resistant Staphylococcus aureus 2658 RCMB after 18 to 20 hrs by broth microdilution method; assay type: functional
Staphylococcus aureus [16] = experiment: Bactericidal activity against methicillin/ciprofloxacin/gentamicin/clindamycin-resistant Staphylococcus aureus USA200 NRS383 clinical isolate after 24 hrs; assay type: functional; conditions: for MBC: USA200 NRS383, 24 h
Staphylococcus aureus [17] = experiment: Antibacterial activity against vancomycin-resistant Staphylococcus aureus VRSA4 clinical isolate after 18 to 20 hrs by broth microdilution method; assay type: functional
Staphylococcus aureus [18] = experiment: Antibacterial activity against methicillin-resistant Staphylococcus aureus USA400 NRS123 clinical isolate after 18 to 20 hrs by broth microdilution method; assay type: functional
HaCaT [19] = experiment: Cytotoxicity against human HaCaT cells assessed as decrease in cell viability up to 32 ug/ml after 2 hrs by MTS assay; assay type: cell-based
[20] = Intrinsic clearance in human liver microsomes after 10 to 60 mins in absence of NADPH by LC/MS/MS analysis; assay type: ADME, microsome; conditions: read-out: CLH
HaCaT [21] = experiment: Cytotoxicity against human HaCaT cells assessed as decrease in cell viability at 64 ug/ml after 2 hrs by MTS assay; assay type: cell-based
[22] = Half life in human liver microsomes after 10 to 60 mins in presence of NADPH by LC/MS/MS analysis; assay type: ADME, microsome
[23] = Intrinsic clearance in human liver microsomes after 10 to 60 mins in presence of NADPH by LC/MS/MS analysis; assay type: ADME, microsome; conditions: read-out: CLH
[24] = Half life in human liver microsomes after 10 to 60 mins in absence of NADPH by LC/MS/MS analysis; assay type: ADME, microsome
Staphylococcus aureus [25] = experiment: Bactericidal activity against methicillin-resistant Staphylococcus aureus USA400 NRS123 clinical isolate assessed as time required to reduce 3 log10CFU of bacterial load at 4 times MIC by time kill assay; assay type: functional
Staphylococcus aureus [26] = experiment: Potentiation of vancomycin-mediated antibacterial activity against vancomycin-resistant Staphylococcus aureus VRSA10 clinical isolate assessed as vancomycin MIC at 0.5 times MIC preincubated for 30 mins followed by vancomycin addition measured after 20 to 22 hrs (reference value: 512 ug/ml); assay type: functional
Staphylococcus aureus [27] = experiment: Potentiation of vancomycin-mediated antibacterial activity against vancomycin-resistant Staphylococcus aureus VRSA4 clinical isolate assessed as reduction in vancomycin MIC at 0.5 times MIC preincubated for 30 mins followed by vancomycin addition measured after 20 to 22 hrs relative to control; assay type: functional
J774 = experiment: Cytotoxicity against mouse J774 cells assessed as decrease in cell viability at 8 ug/ml after 2 hrs by MTS assay; assay type: cell-based; conditions: j774, 2 h
HaCaT [28] = experiment: Cytotoxicity against human HaCaT cells assessed as decrease in cell viability up to 8 ug/ml after 2 hrs by MTS assay; assay type: cell-based

SMILES | MBC (Staphylococcus aureus [1]) | MIC (Staphylococcus aureus [2]) | MIC (Staphylococcus aureus [3]) | MIC (Staphylococcus aureus [4]) | MIC (Staphylococcus aureus [5]) | MBC (Staphylococcus aureus [8]) | MBC (Staphylococcus aureus [10]) | MBC (Staphylococcus aureus [11]) | MBC (Staphylococcus aureus [12]) | MIC (Staphylococcus aureus [13]) | MBC (Staphylococcus aureus [14]) | MIC (Staphylococcus aureus [15]) | MBC (Staphylococcus aureus [16]) | MIC (Staphylococcus aureus [17]) | MIC (Staphylococcus aureus [18]) | further results
CCCCCCCCOc1ccc(-c2nc(C)c(/C(C)=N/NC(=N)N)s2)cc1 | 8 µg/mL (≈ 19.9 µM) | 4 µg/mL (≈ 9.96 µM) | 1 µg/mL (≈ 2.49 µM) | 4 µg/mL (≈ 9.96 µM) | 4 µg/mL (≈ 9.96 µM) | 4 µg/mL (≈ 9.96 µM) | 4 µg/mL (≈ 9.96 µM) | 2 µg/mL (≈ 4.98 µM) | 8 µg/mL (≈ 19.9 µM) | 2 µg/mL (≈ 4.98 µM) | 4 µg/mL (≈ 9.96 µM) | 15.6 µg/mL (≈ 38.9 µM) | 2 µg/mL (≈ 4.98 µM) | 4 µg/mL (≈ 9.96 µM) | 4 µg/mL (≈ 9.96 µM) | Time (Staphylococcus aureus [6]): <=2 hr; Activity (Staphylococcus aureus [7]): Active; Activity (HaCaT [9]): Non-Toxic
CCCCCCOc1ccc(-c2nc(C)c(/C(C)=N/NC(=N)N)s2)cc1 | 16 µg/mL (≈ 42.8 µM) | 4 µg/mL (≈ 10.7 µM) | 1 µg/mL (≈ 2.68 µM) | 4 µg/mL (≈ 10.7 µM) | 4 µg/mL (≈ 10.7 µM) | 8 µg/mL (≈ 21.4 µM) | 4 µg/mL (≈ 10.7 µM) | 2 µg/mL (≈ 5.35 µM) | 4 µg/mL (≈ 10.7 µM) | 2 µg/mL (≈ 5.35 µM) | 4 µg/mL (≈ 10.7 µM) | 0.35 µg/mL (≈ 0.937 µM) | 2 µg/mL (≈ 5.35 µM) | 4 µg/mL (≈ 10.7 µM) | 4 µg/mL (≈ 10.7 µM) | Activity (HaCaT [19]): Non-Toxic; microsomal CLint [20]: < 9.6 µL/min/mg; Activity (HaCaT [21]): Toxic; half-life [22]: > 4 h; microsomal CLint [23]: < 9.6 µL/min/mg; half-life [24]: > 4 h; Time (Staphylococcus aureus [25]): 24 h
C/C(=N\NC(=N)N)c1sc(-c2ccc(OC3CCCC3)cc2)nc1C | 32 µg/mL (≈ 89.5 µM) | 8 µg/mL (≈ 22.4 µM) | 2 µg/mL (≈ 5.59 µM) | 8 µg/mL (≈ 22.4 µM) | 8 µg/mL (≈ 22.4 µM) | 8 µg/mL (≈ 22.4 µM) | 8 µg/mL (≈ 22.4 µM) | 4 µg/mL (≈ 11.2 µM) | 8 µg/mL (≈ 22.4 µM) | 2 µg/mL (≈ 5.59 µM) | 8 µg/mL (≈ 22.4 µM) | 15.6 µg/mL (≈ 43.7 µM) | 16 µg/mL (≈ 44.8 µM) | 8 µg/mL (≈ 22.4 µM) | 8 µg/mL (≈ 22.4 µM) | Activity (Staphylococcus aureus [1]): Dose-dependent effect; Activity (Staphylococcus aureus [8]): Dose-dependent effect; Activity (HaCaT [9]): Non-Toxic; Activity (Staphylococcus aureus [11]): Dose-dependent effect; Activity (Staphylococcus aureus [16]): Dose-dependent effect
CC(=O)NC[C@H]1CN(c2ccc(N3CCOCC3)c(F)c2)C(=O)O1 [LINEZOLID] | 32 µg/mL (≈ 94.9 µM) | – | – | – | – | 16 µg/mL (≈ 47.4 µM) | 8 µg/mL (≈ 23.7 µM) | 16 µg/mL (≈ 47.4 µM) | 32 µg/mL (≈ 94.9 µM) | – | 16 µg/mL (≈ 47.4 µM) | – | 32 µg/mL (≈ 94.9 µM) | – | – | –
C/C(=N\NC(=N)N)c1sc(-c2ccc(OCC3CCC3)cc2)nc1C | – | – | – | – | – | – | – | – | – | – | – | > 30 µg/mL | – | – | – | –
CCCOc1ccc(-c2nc(C)c(/C(C)=N/NC(=N)N)s2)cc1 | – | – | – | – | – | – | – | – | – | – | – | > 30 µg/mL | – | – | – | –
C/C(=N\NC(=N)N)c1sc(-c2ccc(OCCC(C)C)cc2)nc1C | > 32 µg/mL | 16 µg/mL (≈ 44.5 µM) | 8 µg/mL (≈ 22.3 µM) | 16 µg/mL (≈ 44.5 µM) | 16 µg/mL (≈ 44.5 µM) | 32 µg/mL (≈ 89 µM) | 32 µg/mL (≈ 89 µM) | 8 µg/mL (≈ 22.3 µM) | 16 µg/mL (≈ 44.5 µM) | 8 µg/mL (≈ 22.3 µM) | 32 µg/mL (≈ 89 µM) | 7.81 µg/mL (≈ 21.7 µM) | 16 µg/mL (≈ 44.5 µM) | 16 µg/mL (≈ 44.5 µM) | 16 µg/mL (≈ 44.5 µM) | –
CCCCCCCOc1ccc(-c2nc(C)c(/C(C)=N/NC(=N)N)s2)cc1 | 4 µg/mL (≈ 10.3 µM) | 2 µg/mL (≈ 5.16 µM) | 0.5 µg/mL (≈ 1.29 µM) | 2 µg/mL (≈ 5.16 µM) | 2 µg/mL (≈ 5.16 µM) | 2 µg/mL (≈ 5.16 µM) | 2 µg/mL (≈ 5.16 µM) | 1 µg/mL (≈ 2.58 µM) | 2 µg/mL (≈ 5.16 µM) | 1 µg/mL (≈ 2.58 µM) | 2 µg/mL (≈ 5.16 µM) | 0.74 µg/mL (≈ 1.91 µM) | 1 µg/mL (≈ 2.58 µM) | 2 µg/mL (≈ 5.16 µM) | 2 µg/mL (≈ 5.16 µM) | MIC (Staphylococcus aureus [26]): > 128 µg/mL; fold change (FC) (Staphylococcus aureus [27]): 4; Activity (J774): Toxic; Activity (HaCaT [28]): Non-Toxic
CCCCOc1ccc(-c2nc(C)c(/C(C)=N/NC(=N)N)s2)cc1 | – | – | 32 µg/mL (≈ 92.6 µM) | – | – | – | – | > 128 µg/mL | – | 32 µg/mL (≈ 92.6 µM) | – | 15.6 µg/mL (≈ 45.2 µM) | > 64 µg/mL | – | – | microsomal CLint [20]: < 9.6 µL/min/mg; half-life [22]: > 4 h; microsomal CLint [23]: < 9.6 µL/min/mg; half-life [24]: > 4 h
